Here are results for four molecules from patent US20110172182A1, “Carboxyethylated Cyclodextrin Polysulfates Useful As Medicaments” (ARCARIOS B.V., priority 2008, published 2011).

The test system of data set [1] is human articular chondrocytes from osteoarthritic (OA) cartilage. The data set is described as follows: Aggrecan synthesis by OA chondrocytes in alginate beads (ELISA of interterritorial matrix). It is filed as cell-based. Conditions: 5 μg/ml, 5 culture days. The source says: (§1) Human articular chondrocytes were isolated as described in J. Tissue Culture Methods (1993) 15:139-146). Briefly, human articular cartilage was obtained at total knee replacement surgery from femoral condyles and the tibial plateau of 15 different donors. None of them had received corticosteroids or cytostatic drugs. Both visually intact and fibrillated OA cartilage samples were harvested separately and only OA cartilage was used for cell culture. The cartilage samples were diced into small fragments and the chondrocytes were isolated by sequential enzymatic digestion (hyaluronidase, pronase and collagenase) of the extracellular matrix (ECM) as described in Osteoarthritis Cartilage (2001) 9:73-84. Isolated cells were then centrifuged for 10 minutes at 1500 rpm, washed three times in Dulbecco's Modified Eagle's Medium (DMEM) with 10% (v/v) fetal calf serum, and counted with trypan blue to exclude dead cells. More than 90% of the cells were viable after isolation.
(§2) Chondrocytes were cultured in alginate beads, to maintain their differentiated phenotype. The cultures were prepared as described in Connect Tissue Res. (1989) 19:277-297. Chondrocytes suspended in one volume of double-concentrated Hank's Balanced Salts Solution (HBSS, commercially available from Gibco) without calcium and magnesium were carefully mixed with an equal volume of 2% (w/v) autoclaved alginate (low-viscosity alginate from Macrocystis pyrifera, commercially available from Sigma) in HBSS. The final cell concentration was 5×10^6 chondrocytes per ml in 1% alginate. The chondrocyte/alginate suspension was then slowly dripped through a 23-gauge needle into a 102 mM calcium chloride solution. […]
(§3) To study the impact of the changes in the chondrocyte cultures after cyclodextrin polysulfate treatment, mean IL-6 and aggrecan concentrations were calculated from triplicate chondrocyte cultures of each donor. […] Evolution of mouse weight over time was analysed by longitudinal data analysis methods, more specific by area under the curve and mixed model analysis. […]

For data set [2] the test system is unchanged. The data set is described as follows: IL-6 release by OA chondrocytes in alginate beads. The following applies: 5 μg/ml, 5 culture days. It counts as cell-based.
Source text: as §1, §2, §3

The subject of another data set is normal pooled plasma. The data set is described as follows: Blood coagulation activities (aPTT, PT, fibrinogen) in normal pooled plasma. Details: species or system human. The following applies: after incubation with 50 or 100 μg/ml. As to the method: MA-CDPS, HP-CDPS, CE-CDPS and CDPS (as defined in examples 3-4 and characterised in table 1) were prepared as buffered solutions at various concentrations. The polysaccharides were incubated with normal pooled plasma prepared out of 40 healthy volunteers and analyzed for their effects on activated partial thromboplastin time (aPTT), prothrombin time (PT) and fibrinogen levels on a STA Compact® coagulation analyzer (available from Diagnostica Stago, Asnieres, France) according to the manufacturers instructions.

Data set [3] deals with healthy donor thrombocytes. The data set is described as follows: Platelet activation (CD62p, flow cytometry) by HIT patient anti-heparin/PF4 antibodies. Conditions: for ratio: % CD62p+ (with substance)/% CD62p+ (without) / ΔCD62p+ %: percentage increases in CD62p positive platelets: 0.3 IU heparin or 5 μg/ml polysaccharide. It counts as cell-based, human. As to the method: The activation of healthy donor thrombocytes by HIT patient anti-heparin/PF4 antibodies in the presence of heparin and the differently sulfated forms of β-cyclodextrin was tested. […] The expression of CD62p by the activated platelets was assayed by means of flow cytometry with a FC500 analyzer (available from Beckman Coulter, Belgium). Platelet-rich plasma solution (PRP) was prepared by slow centrifugation (10 minutes at 180 g) of fresh citrate anti-coagulated blood (1:9 v/v, 0.129 mol/L or 3.8% trisodium citrate buffer), obtained from normal donors. HIT Ab positive plasma samples from patients and HIT Ab negative control plasma from healthy donors were prepared by double centrifugation (15 minutes at 2230 rpm) of fresh citrate anti-coagulated blood. 70 μl of PRP was incubated with 20 μL of HIT Ab containing plasma optionally in the presence of heparin (0.3 IU/ml) or the relevant β-cyclodextrin derivative (5 μg/ml). Experiments with each HIT Ab positive plasma sample were repeated independently using thrombocytes of 2 donors (A and B), to avoid the possibility of non-reactive platelets.
Following the initial 40 minutes incubation step, 5 μl of the platelets solution was transferred to a fresh tube with 85 μL phosphate buffered saline (PBS) containing 1% bovine serum albumin (BSA) and 0.1% Na-azide, 5 μl (0.25 μg) monoclonal anti-CD41 antibodies (Ab) (phycoerythrin-Texas Red Energy coupled dye (ECD)-conjugated, Beckman Coulter) and 5 μl (0.125 μg) of anti-CD62p Ab (phycoerythrin (PE)-conjugated, Beckman Coulter). CD41 (Glycoprotein […]) is a selective marker of platelets and platelet precursors. CD62p is a constituent of alpha granules and is released to the platelet surface on activation.
After 20 minutes of incubation at room temperature, the total volume of the platelet suspension was adjusted to 600 μL buffered solution and evaluated without delay by flow cytometry. 20,000 events per sample were analysed and the platelet populations were gated by side scatter characteristics and the platelet marker CD41. The fraction of activated platelets among the total platelet population was determined and relative CD62p ratios to the internal controls were calculated. [ratio: % CD62p^+ (0.3 IU Heparine or 5 μg/ml β-cyclodextrin derivative)/% CD62p^+ (0 IU Heparine or 0 μg/ml β-cyclodextrin derivative)]. Test results for the heparin treated platelets were evaluated by the scoring system described in Thromb. Haemost. (1999) 82:1255-1259. Control tests were scored positive when the calculated ratios of at least 2 donors were more then 2, based on previously obtained results with normal individuals. To evaluate the potential of the different β-cyclodextrin derivatives to induce platelet activation, both the percentages and ratios of CD62p^+ platelets after incubation with the respective β-cyclodextrin were statistically compared to the percentage and the ratio of CD62p^+ platelets after heparin incubation.

In data set [4] the test system is rabbit model of experimental osteoarthritis (OA). Conditions: subcutaneously administered; cited from earlier work.
The next data set relates to thrombin clotting. The following applies: in vitro; cited from earlier work.
Setting [5] is: HIT ab plasma pat1, platelet donor dA.
Setting [6] is: HIT ab plasma pat1, platelet donor dB.
Where [7] appears, read: HIT ab plasma pat2, platelet donor dB.
The mark [8] stands for this setting: HIT ab plasma pat3, platelet donor dA.
[9] abbreviates: HIT ab plasma pat3, platelet donor dB.
Setting [10] is: HIT ab plasma pat4, platelet donor dA.
Setting [11] is: HIT ab plasma pat4, platelet donor dB.

For the molecule “2,3-di-O-methyl-6-sulfate-β-cyclodextrin [ME-CD-6-S]”, the “effect on chondrocyte aggrecan synthesis” value in data set [1] was “failed to affect”. Also, in data set [2], the “effect on chondrocyte IL-6 release/secretion” value is “failed to affect”.
As for “2,6-di-O-methyl-3-sulfate-β-cyclodextrin [ME-CD-3-S]”, the “effect on chondrocyte aggrecan synthesis” value in data set [1] is given as “failed to affect”. For the same molecule, in data set [2], the “effect on chondrocyte IL-6 release/secretion” value is reported as “failed to affect”.
For `COC[C@H]1O[C@@H]2O[C@H]3[C@H](OC)[C@@H](OC)[C@@H](O[C@H]4[C@H](OC)[C@@H](OC)[C@@H](O[C@H]5[C@H](OC)[C@@H](OC)[C@@H](O[C@H]6[C@H](OC)[C@@H](OC)[C@@H](O[C@H]7[C@H](OC)[C@@H](OC)[C@@H](O[C@H]8[C@H](OC)[C@@H](OC)[C@@H](O[C@H]1[C@H](OC)[C@H]2OC)O[C@@H]8COC)O[C@@H]7COC)O[C@@H]6COC)O[C@@H]5COC)O[C@@H]4COC)O[C@@H]3COC` [ME-CD, 2,3,6-tri-O-methyl-β-cyclodextrin], the “effect on chondrocyte aggrecan synthesis” value in data set [1] is recorded as “failed to promote”. In addition, the “effect on chondrocyte IL-6 release/secretion” value in data set [2] was “failed”.
Consider β-cyclodextrin polysulfate [CDPS], for which, in the data set on normal pooled plasma, the fibrinogen concentrations entry is “Minor decreases”. The “ratio: % CD62p+ (with substance)/% CD62p+ (without)” value is reported as 5.8 in data set [3] (setting [5]); 6.5 in data set [3] (setting [6]); 0.7 in data set [3] (setting [7]); 2.5 in data set [3] (setting [8]); 7.0 in data set [3] (setting [9]); 4.4 in data set [3] (setting [10]). In addition, the “ratio: % CD62p+ (with substance)/% CD62p+ (without)” value in data set [3] (setting [11]) was found to be 2.5. Further, the “ΔCD62p+ %: percentage increases in CD62p positive platelets” value in data set [3] (setting [5]) is recorded as 76.1%; in data set [3] (setting [6]), 73.1%; in data set [3] (HIT ab plasma pat2, platelet donor dA), 27.5%; in data set [3] (setting [7]), −2.8%; in data set [3] (setting [8]) it was 42.7%; in data set [3] (setting [9]) it was 34.1%. Further, the figures for the “ΔCD62p+ %: percentage increases in CD62p positive platelets” value in data set [3] (setting [10]) and in data set [3] (setting [11]) were 63.5% and 58.1%, respectively. In data set [3] (in the presence of plasma samples of individuals that had developed HIT Ab), the platelet activation result is given as “induced platelet activation”. In addition, the “cartilage lesions and osteocyte formation in the affected joints” value in data set [4] is “reduced”. The thrombin clotting times result in the data set with thrombin clotting is “prolongation”. Also, the thrombus formation entry with thrombin clotting is given as “reduction”.
